These results are taken from ChEMBL document CHEMBL3046277, “Inheritance mode and realized heritability of resistance to imidacloprid in the brown planthopper, Nilaparvata lugens (Stål) (Homoptera: Delphacidae)” (2009).

Common to all, as to assay type: functional
For assay [1], the system named is Nilaparvata lugens. The experiment in a line: Insecticidal activity against Nilaparvata lugens (brown planthopper) F1 progeny generated from reciprocal cross between female imidacloprid-susceptible strain and male imidaclporid-resistant strain in rice stem assessed as mortality treated for 30 secs prior to nymph infestation measured at 96 hr post-drug treatment by rice-stem dipping method.

In assay [2] the test system is Nilaparvata lugens. The assay is described as follows: Insecticidal activity against third instar nymph stage of imidacloprid-susceptible Nilaparvata lugens (brown planthopper) in rice stem assessed as mortality treated for 30 secs prior to nymph infestation measured at 96 hr post-drug treatment by rice-stem dipping method.
The subject of assay [3] is Nilaparvata lugens. The assay is described as follows: Resistance ratio of LC50 for Nilaparvata lugens (brown planthopper) F1' progeny to LC50 for imidacloprid-susceptible brown planthopper.
Assay [4] concerns Nilaparvata lugens. The experiment in a line: Insecticidal activity against Nilaparvata lugens (brown planthopper) offspring obtained after 23 selected generations in rice stem assessed as mortality treated for 30 secs prior to nymph infestation measured at 96 hr post-drug treatment by rice-stem dipping method. The conditions noted are these: read-out: Log10LC50 (converted).
The subject of assay [5] is Nilaparvata lugens. The experiment in a line: Resistance ratio of LC50 for Nilaparvata lugens (brown planthopper) F1 progeny to LC50 for imidacloprid-susceptible brown planthopper.
Assay [6] has as its system Nilaparvata lugens. The assay is described as follows: Insecticidal activity against 23 generation selection pressure-induced imidacloprid-resistance Nilaparvata lugens (brown planthopper) at third instar nymph stage in rice stem assessed as mortality treated for 30 secs prior to nymph infestation measured at 96 hr post-drug treatment by rice-stem dipping method.
Assay [7] has as its system Nilaparvata lugens. The experiment in a line: Insecticidal activity against Nilaparvata lugens (brown planthopper) F1' progeny generated from reciprocal cross between male imidacloprid-susceptible strain and female imidaclporid-resistant strain in rice stem assessed as mortality treated for 30 secs prior to nymph infestation measured at 96 hr post-drug treatment by rice-stem dipping method.

Assay [8] relates to Nilaparvata lugens. The assay is described as follows: Resistance ratio of LC50 for imidacloprid-resistance Nilaparvata lugens (brown planthopper) to LC50 for imidacloprid-susceptible brown planthopper.
Assay [9] relates to Nilaparvata lugens. The assay is described as follows: Insecticidal activity against Nilaparvata lugens (brown planthopper) parental generation in rice stem assessed as mortality treated for 30 secs prior to nymph infestation measured at 96 hr post-drug treatment by rice-stem dipping method. The conditions noted are these: read-out: Log10LC50 (converted).

≈ marks a conversion by molar mass, not a printed value.

With `O=[N+]([O-])/N=C1\NCCN1Cc1ccc(Cl)nc1` [IMIDACLOPRID], the LC50 in assay [1] is 25.7 µg/mL (≈ 100 µM); in [2], 0.11 µg/mL (≈ 0.43 µM); in assay [4], 9.43 mM; in assay [6], 106 µg/mL (≈ 415 µM); in assay [7], 30.2 µg/mL (≈ 118 µM); in assay [9], 62.5 mM. Moreover, the RatioLC50 in [3] turned out to be 274.45; in assay [5], 233.45; in assay [8] it was 964.09.
